We go through 55 compounds from US7786040B2, “4-cyclopropyl-1,2,3,-thiadiazole compound, agrohorticultural plant disease controlling agent and method of using the same” (Nihon Nohyaku Co., Ltd., priority 2005, dated 2010).

The structures appear in SMILES notation.

Test [1] has as its system powdery mildew fungus (Blumeria graminis). Briefly: Test Example 2: controlling effect by seed dressing against wheat powdery mildew, long-lasting effect. It is filed as in vivo. To be noted: 0.15% active ingredient based on weight of dry seeds, inoculated 50 days after sowing, investigated 7 days after inoculation. The text has this:
(§1) Seeds of wheat (cultivar: chihoku komugi) and a wettable powder prepared according to Formulation Example were placed in a vinyl bag, followed by adding thereto a small volume of water, and they were mixed to conduct seed dressing. On the day after this treatment, the seeds sowed in a plastic pot of 10 cm diameter, and cultivated in a greenhouse. Twenty five days after sowing, the seedlings thus obtained were inoculated with powdery mildew fungus (Blumeria graminis) by sprinkling. Seven days after inoculation, the seedlings were investigated and infection index was estimated according to the criterion shown below, after which the control efficacy (%) was calculated. In this occasion, infection index on the untreated plot was 8.0. As comparative examples, the following compounds described in JP-A-2001-10909 were evaluated. • I: 3′-chloro-4,4′-dimethyl-1,2,3-thiadiazole-5-carboxanilide • II: benzyl 4-isopropyl-1,2,3-thiadiazole-5-carboxylate • III: methyl 4-cyclopropyl-1,2,3-thiadiazole-5-carboxylate • IV: 4-cyclopropyl-1,2,3-thiadiazole-5-carboxylic acid Infection Index • 0: No infection. • 0.5: Lesion area percentage: less than 10% • 1: Lesion area percentage; 10 to less than 20% • 2: Lesion area percentage; 20 to less than 30% • 3: Lesion area percentage; 30 to less than 40% • 4: Lesion area percentage; 40 to less than 50% • 5: Lesion area percentage; 50 to less than 60% • 6: Lesion area percentage; 60 to less than 70% • 7: Lesion area percentage; 70 to less than 80% • 8: Lesion area percentage; 80 to less than 90% • 9: Lesion area percentage; 90 to less than 100% • 10: Lesion area percentage; 100% Control efficacy (%)={1-(infection index on treated plot/infection index on untreated plot)}×100 Rank of Control Efficacy • A: Control efficacy 100-90% • B: Control efficacy 89-80% • C: Control efficacy 79-60% • D: Control efficacy 59-0%
Seeds of wheat (cultivar: Chihoku Komugi) and a wettable powder prepared according to Formulation Example were placed in a vinyl bag, followed by adding thereto a small volume of water, and they were mixed to conduct seed dressing. On the day after this treatment, the seeds sowed in a plastic pot of 10 cm diameter, and cultivated in a greenhouse. Fifty days after sowing, the seedlings thus obtained were inoculated with powdery mildew fungus (Blumeria graminis) by sprinkling. Seven days after inoculation, the seedlings were investigated and infection index was estimated according to the criterion shown below, after which the control efficacy (%) was calculated. In this occasion, infection index on the untreated plot was 8.0. As comparative examples, the above-described compounds I, II, III and IV were evaluated.

Test [2] has the same test system. Briefly: Test Example 1: controlling effect by seed dressing against wheat powdery mildew. It is filed as in vivo. Particulars: 0.15% active ingredient based on weight of dry seeds, inoculated 25 days after sowing, investigated 7 days after inoculation.
Text: as §1

For the compound `O=C(OCc1ccccc1Cl)c1snnc1C1CC1` [1-10, (2-chlorobenzyl)4-cyclopropyl-1,2,3-thiadiazole-5-carboxylate], the “Rank of control efficacy” value in test [1] and in test [2] was “B or more” each time.
For the compound `Cc1ccccc1COC(=O)c1snnc1C1CC1` [1-13], the “Rank of control efficacy” value in test [1] and in test [2] was “B or more” each time.
On to `Cc1ccc(COC(=O)c2snnc2C2CC2)cc1` [1-15], for which the “Rank of control efficacy” value in test [1] and in test [2] was “B or more” throughout.
Regarding `COc1ccccc1COC(=O)c1snnc1C1CC1` [1-16], the “Rank of control efficacy” value in test [1] and in test [2] was “B or more” each time.
On to `COc1ccc(COC(=O)c2snnc2C2CC2)cc1` [1-18], for which the “Rank of control efficacy” value in test [1] and in test [2] was “B or more” throughout.
For the compound `CC(C)(C)OC(=O)c1ccc(COC(=O)c2snnc2C2CC2)cc1` [1-25], the “Rank of control efficacy” value in test [2] is “B or more”.
Same read-out and setting: the result for `O=C(OCc1ccc(Cl)cc1Cl)c1snnc1C1CC1` [1-26] reads “B or more”.
For `CC(OC(=O)c1snnc1C1CC1)c1ccccc1` (stereo not shown) [1-41], the “Rank of control efficacy” value in test [1] and in test [2] was “B or more” in each case.
As for `Cc1ccc(C(C)OC(=O)c2snnc2C2CC2)cc1` (stereo not shown) [1-47], the “Rank of control efficacy” value in test [2] is “B or more”.
As for `COc1ccc(C(C)OC(=O)c2snnc2C2CC2)cc1` (stereo not shown) [1-50], the “Rank of control efficacy” value in test [1] and in test [2] was “B or more” each time.
On to `O=C(NCc1ccc(Cl)cc1)c1snnc1C1CC1` [1-56], for which the “Rank of control efficacy” value in test [2] is reported as “B or more”.
For `Cc1ccc(CNC(=O)c2snnc2C2CC2)cc1` [1-59], the “Rank of control efficacy” value in test [2] is listed as “B or more”.
On to `COc1ccc(CNC(=O)c2snnc2C2CC2)cc1` [1-62], for which the “Rank of control efficacy” value in test [1] and in test [2] was “B or more” throughout.
With `Cc1ccc(Oc2ccc(CNC(=O)c3snnc3C3CC3)cc2)cc1` [1-65], the “Rank of control efficacy” value in test [2] is given as “B or more”.
On the same count and under the same terms, as for `O=C(NCc1ccc(Oc2ccc(C(F)(F)F)cc2)cc1)c1snnc1C1CC1` [1-66], the entry is “B or more”.
For `O=C(NCc1ccc(OCC(F)(F)F)cc1)c1snnc1C1CC1` [1-68], the “Rank of control efficacy” value in test [1] and in test [2] was “B or more” throughout.
Regarding `CN(Cc1ccccc1)C(=O)c1snnc1C1CC1` [1-82], the “Rank of control efficacy” value in test [1] and in test [2] was “B or more” in each case.
For `COc1ccc(NC(=O)c2snnc2C2CC2)cc1OC` [1-97], the “Rank of control efficacy” value in test [1] and in test [2] was “B or more” throughout.
Take `COC(c1ccc(NC(=O)c2snnc2C2CC2)cc1OC(C)C)(C(F)(F)F)C(F)(F)F` [1-103]: in test [2], the “Rank of control efficacy” value is on record as “B or more”.
As to `O=C(Nc1nc2ccccc2s1)c1snnc1C1CC1` [1-111], the “Rank of control efficacy” value in test [1] and in test [2] was “B or more” each time.
Turning to `O=C(Nc1nnc(C(F)(F)F)s1)c1snnc1C1CC1` [1-112], the “Rank of control efficacy” value in test [1] and in test [2] was “B or more” throughout.
Consider `O=C(NOCc1ccccc1)c1snnc1C1CC1` [1-113], for which the “Rank of control efficacy” value in test [1] and in test [2] was “B or more” each time.
In the case of `CS(=O)(=O)NC(=O)c1snnc1C1CC1` [1-120], in test [2], the “Rank of control efficacy” value was “B or more”.
Still for that read-out and setting: as for `O=C(NS(=O)(=O)C(F)(F)F)c1snnc1C1CC1` [1-122], the entry is “B or more”.
Take `Cc1ccc(NC(=S)c2snnc2C2CC2)cc1Cl` [1-143, 3′-chloro-4-cyclopropyl-4′-methyl-1,2,3-thiadiazole-5-thiocarboxamilide]: the “Rank of control efficacy” value in test [1] and in test [2] was “B or more” throughout.
Turning to `COc1ccc(NC(=S)c2snnc2C2CC2)c(OC)c1` [1-144], the “Rank of control efficacy” value in test [1] and in test [2] was “B or more” in each case.
For the compound `C=CCNC(=O)c1snnc1C1CC1` [1-145], the “Rank of control efficacy” value in test [1] and in test [2] was “B or more” each time.
In the case of `Cc1cccc(C)c1NC(=O)c1snnc1C1CC1` [1-151], the “Rank of control efficacy” value in test [2] is “B or more”.
Still for that read-out and setting: the result for `CCc1cccc(CC)c1NC(=O)c1snnc1C1CC1` [1-152] reads “B or more”; that for `Cc1cccc(C)c1N(C(=O)c1snnc1C1CC1)C(=O)c1snnc1C1CC1` [1-153], “B or more”.
On the same count and under the same terms, as for `CCc1cccc(CC)c1N(C(=O)c1snnc1C1CC1)C(=O)c1snnc1C1CC1` [1-154], the entry is “B or more”.
For the compound `COc1ccc(OC)c(NC(=O)c2snnc2C2CC2)c1` [1-155], the “Rank of control efficacy” value in test [1] and in test [2] was “B or more” throughout.
In the case of `COc1ccc(NC(=O)c2snnc2C2CC2)c(C)c1` [1-156], the “Rank of control efficacy” value in test [1] and in test [2] was “B or more” each time.
Consider `O=C(NS(=O)(=O)c1ccc(Cl)cc1)c1snnc1C1CC1` [1-157], for which the “Rank of control efficacy” value in test [2] is on record as “B or more”.
As to `O=C(NS(=O)(=O)c1ccccc1Cl)c1snnc1C1CC1` [1-158], in test [2], the “Rank of control efficacy” value was “B or more”.
Same read-out and setting: the result for `Cc1ccc(CNC(=O)c2snnc2C2CC2)c(C)c1` [1-162] reads “B or more”.
With `Cc1ccc(C)c(CNC(=O)c2snnc2C2CC2)c1` [1-163], the “Rank of control efficacy” value in test [2] was “B or more”.
On the same count and under the same terms, the result for `O=C(NCc1ccc(Cl)cc1Cl)c1snnc1C1CC1` [1-164] reads “B or more”.
For `COc1cccc(CNC(=O)c2snnc2C2CC2)c1OC` [1-165], the “Rank of control efficacy” value in test [1] and in test [2] was “B or more” in each case.
Turning to `COc1ccc(OC)c(CNC(=O)c2snnc2C2CC2)c1` [1-167], the “Rank of control efficacy” value in test [1] and in test [2] was “B or more” each time.
As for `COc1cc(CNC(=O)c2snnc2C2CC2)cc(OC)c1` [1-168], the “Rank of control efficacy” value in test [2] is “B or more”.
Regarding `CCOC(=O)c1csc(NC(=O)c2snnc2C2CC2)n1` [1-169], the “Rank of control efficacy” value in test [1] and in test [2] was “B or more” in each case.
Consider `O=C(Nc1nc(-c2ccccc2)cs1)c1snnc1C1CC1` [1-170], for which the “Rank of control efficacy” value in test [1] and in test [2] was “B or more” throughout.
With `CCOC(=O)c1sc(NC(=O)c2snnc2C2CC2)nc1C` [1-173], the “Rank of control efficacy” value in test [1] and in test [2] was “B or more” in each case.
Consider `Cc1nsc(NC(=O)c2snnc2C2CC2)c1Br` [1-174], for which the “Rank of control efficacy” value in test [2] was “B or more”.
In the case of `COc1cc(OC)nc(NC(=O)c2snnc2C2CC2)n1` [1-175], the “Rank of control efficacy” value in test [1] and in test [2] was “B or more” each time.
Turning to `COc1cc(C)nc(NC(=O)c2snnc2C2CC2)n1` [1-176], the “Rank of control efficacy” value in test [1] and in test [2] was “B or more” throughout.
Take `Cc1cc(C)nc(NC(=O)c2snnc2C2CC2)n1` [1-177]: the “Rank of control efficacy” value in test [1] and in test [2] was “B or more” each time.
Consider `COc1ccc2nc(NC(=O)c3snnc3C3CC3)sc2c1` [1-180], for which the “Rank of control efficacy” value in test [2] is “B or more”.
Still for that read-out and setting: as for `CN(C)c1ccncc1.COc1ccc2nc(NC(=O)c3snnc3C3CC3)sc2c1` [1-181], the entry is “B or more”.
The same measure, in the same setting: as for `Cc1nc(-c2ccccc2NC(=O)c2snnc2C2CC2)no1` [1-182], the entry is “B or more”; as for `O=C(NCc1cnc(Cl)s1)c1snnc1C1CC1` [1-185], “B or more”.
With `O=C(Nc1cccc2c1C(=O)OC2)c1snnc1C1CC1` [1-186], the “Rank of control efficacy” value in test [2] is reported as “B or more”.
On the same count and under the same terms, the result for `O=c1oc(-c2snnc2C2CC2)nc2ccccc12` [2-1, 2-(4-cyclopropyl-1,2,3-thiadiazol-5-yl)-4-H-3,1-benzoxazin-4-one] reads “B or more”; that for `CC(C)c1nnsc1C(=O)OCc1ccccc1` [II, benzyl 4-isopropyl-1,2,3-thiadiazole-5-carboxylate, reference compound], “C (Control efficacy 79-60%)”.
